According to US20140196172A1, “Organelle Targeting Nanocarriers” (Her Majesty the Queen in Right of Canada, as Repre sented …, priority 2011, published 2014):

Experiments:
Assay type in all cases: cell-based
[1] = tested on: F1112 (bovine colonic cell line); assay: Uptake of labeled peptides by F1112 cells, photometric cell imaging; settings: for Average concentration of labeled peptide measured in cells, F1112: cells exposed to labeled peptide at 17 μM; for Photometric Cell Imaging (average counts/sec) F1112: 1 hr, background about 1×10^5 counts/sec
Procedure: (§1) Caco-2 and F1112 cells are cultured in Dulbecco's Modified Eagle Medium (DMEM) containing 10% (v/v) fetal bovine serum (FBS) and 50 μg/ml gentamycin at 37° C. in a 95% humidified atmosphere containing 5% CO2. The cells are grown in Falcon™ […] 75 cm^2 cell culture flasks until they reach confluency, then are detached with 0.25% trypsin and 0.02% EDTA and washed with DMEM.
(§2) Preparations used for photometric cell imaging are prepared by adding 1000 cells to a Nunc coverglass chamber (2.5 cm^2). Cells are cultured as described above for 3 to 7 days. The cell monolayers are rinsed three times with epithelial cell saline (pH 7.4).
(§3) Varying concentrations of fluoresceinated mTPs (100 μM) are added to epithelial cell saline to obtain a final working volume of 400 μl. Final concentrations added to the Caco-2, F1112 and MG cell monolayers as described above are 17 μM, 9 μM and 4 μM. Cells are incubated with the peptides for 1 hr in the dark at 37° C. in a 95% humidified atmosphere containing 5% CO2. At the end of the incubation period, the cell monolayer is rinsed three times with epithelial cell saline and 500 μl of epithelial cell saline is added.
(§4) Uptake of labeled peptides by cells is quantified using a photometric detector/cell-imaging system (PTI). An excitation scan is run to determine if uptake has occurred as indicated by peaks at the appropriate wavelengths and if the amount changes in a dose-dependent manner compared to unlabeled cells. A time-based scan is then performed at the optimal excitation and emission wavelength to quantify total uptake, using about 20 cells/view/replicate.

[2] = tested on: MG (bovine mammary gland) cells; assay: Uptake of labeled peptides by MG cells, photometric cell imaging; settings: for Average concentration of labeled peptide measured in cells, MG: cells exposed to labeled peptide at 17 μM; for Photometric Cell Imaging (average counts/sec) MG: 1 hr, background about 1×10^5 counts/sec
Procedure: as §1, with “MG” for “Caco-2 and F1112”, “20%” for “10%”, “Falcon™ 25” for “Falcon™”
as §2, §3, §4

[3] = tested on: proplastids of triticale microspores; assay: qRT-PCR of gfp mRNA, microspores transfected with pWCaadA16GFP; settings: gfp reporter construct
Description: FIG. 18 is a plot showing the level of expression (fold increase, average of 4 replicates) of GFP in triticale microspores transfected with the pWCaadA16GFP plasmid in the presence of cTP1 (SEQ ID NO: 6), cTP2 (SEQ ID NO: 7), cTP3 (SEQ ID NO: 8), cTP4 (SEQ ID NO: 9) or cTP5 (SEQ ID NO: 10) compared to the level of expression (fold increase) of the internal control elongation factor 1a (EF1a), as measured by quantitative real time PCR of mRNA levels;
Wheat chloroplast aadA16GFP reporter plasmid (pWCaadA16GFP, FIG. 12) is a 4212 base pair wheat specific plastid transformation vector, which targets insertions into the tml-tmA inverted repeat regions of the Triticum aestivum plastid genome at nucleotides 92850-93727 and 93794-94671 (GenBank accession No. AB042240.3). A multiple cloning site is introduced following the tml target insertion sequence. The selection marker gene is an organelle codon specific aad-gfp fusion gene, which facilitates a dual selection method of spectinomycin resistance through an aadA derivative and visual detection by GFP fluorescence (GenBank accession No. ABX39486; Khan and Maliga, Nat. Biotechnol. (1999 September) 17(9): 910-5). The selection marker gene is driven by the Triticum aestivum plastid genome promoter (psbA) at nucleotides 1282-1153 (GenBank accession No. AB042240.3). The aad-gfp fusion gene is terminated with the rice psbA terminator sequence derived from chloroplast transformation vector pVSR326 nucleotides 4014-4387 (GenBank accession No. AF527485.1).
The dsDNA construct (pWMaadA16GFP for mitochondrial expression or pWCaadA16GFP for expression in chloroplasts) is combined with the mTP (for mitochondrial expression) or cTP (for expression in chloroplasts) in the amounts used in the protoplast transformation experiments described above in a final volume of 100 μl of NBP-99 solution. The mixture is incubated for 10 minutes at room temperature, then incubated with isolated triticale microspores (500 μl, 10^6 microspores/ml, prepared as described in Example 2) for 1 h in the dark at room temperature. NBP-99 solution (500 μl) is added and the mixture is incubated in the dark for 24 h. The cells are imaged using confocal microscopy, as described in Example 2, using MitoTracker® Orange staining to visualize mitochondria.
Microspores are disrupted using a cleaned ceramic bead and aggressive shaking as the tissue is thawing. RLT buffer/B-Me (450 μl) is added and the sample is vortexed. The sample is heated at 55° C. for 1 minute and vortexed again. RNA is extracted using an RNeasy™ Plant Mini Kit (Qiagen), incorporating on-column DNase I digestion into the protocol. The final elution volume is 40 μl. RNA is assessed using both agarose gel […] (to ensure RNA is intact) and spectrophotometry (for quantification).
cDNA is generated using a First Strand Synthesis kit (Invitrogen). RNA (1 μg) is added to each sample and the manufacturer's protocol for synthesis followed, with the exception that the volume of the reaction mixture is increased from 20 μl to 30 μl. A negRT sample containing all reagents but no RNA is included in the cDNA synthesis as a negative control.
Standard curves are generated for both elongation factor 1a (EF1a) (internal control) and green fluorescent protein (GFP) (test) genes. […]
Real time PCR reactions are performed using QuantiTect™ SYBR™ Green PCR Master Mix (Qiagen) in a 20 μl reaction volume. […]

Sequence	Average concentration of labeled peptide measured in cells, F1112 [1]	Photometric Cell Imaging (average counts/sec) F1112 ([1]; labeled peptide 4 μM)	Photometric Cell Imaging (average counts/sec) F1112 ([1]; labeled peptide 9 μM)	Photometric Cell Imaging (average counts/sec) F1112 ([1]; labeled peptide 17 μM)	Average concentration of labeled peptide measured in cells, MG [2]	Photometric Cell Imaging (average counts/sec) MG ([2]; labeled peptide 4 μM)	Photometric Cell Imaging (average counts/sec) MG ([2]; labeled peptide 9 μM)	Photometric Cell Imaging (average counts/sec) MG ([2]; labeled peptide 17 μM)	GFP expression by proplastids confirmed by qRT-PCR [3]
MLFRLRRSVRLRGLLA (listed as Arabidopsis thaliana) [mTP5]	60 nm	440000 counts/sec	2000000 counts/sec	1600000 counts/sec	60 nm	440000 counts/sec	1400000 counts/sec	1600000 counts/sec	–
MWWRRSRTNSLRYT (listed as Arabidopsis thaliana) [mTP4]	144 nm	250000 counts/sec	300000 counts/sec	3500000 counts/sec	58 nm	430000 counts/sec	1200000 counts/sec	1400000 counts/sec	–
MAALIPAIASLPRAQVEKPHPMPVSTRPGLVS (listed as Triticum aestivum) [cTP4]	–	–	–	–	–	–	–	–	GFP is expressed
MAAWMRSLFSPLKKLWIRMH (Zea mays) [mTP2]	70 nm	450000 counts/sec	1800000 counts/sec	1700000 counts/sec	62 nm	140000 counts/sec	160000 counts/sec	1500000 counts/sec	–
MGGCVSTPKSCVGAKLR (listed as Arabidopsis thaliana) [cTP1]	–	–	–	–	–	–	–	–	GFP is expressed
MSSPPPLFTSCLPASSPSIRRDSTSGSVTSPLR (listed as Arabidopsis thaliana) [cTP5]	–	–	–	–	–	–	–	–	GFP is expressed
MQTLTASSSVSSIQRHRPHPAGRRSSSVTFS (listed as Triticum aestivum) [cTP2]	–	–	–	–	–	–	–	–	GFP is expressed
MKLLWRLILSRKW (listed as Arabidopsis thaliana) [mTP3]	53 nm	350000 counts/sec	1100000 counts/sec	1300000 counts/sec	62 nm	430000 counts/sec	1000000 counts/sec	1500000 counts/sec	–
MFSYLPRYPLRAASARALVRATRPSYRSALLRYQ (listed as Triticum aestivum) [mTP1]	49 nm	330000 counts/sec	560000 counts/sec	1200000 counts/sec	78 nm	400000 counts/sec	1800000 counts/sec	1900000 counts/sec	–
